From patent US9855230B2 (ViiV Healthcare UK (No. 5) Limited, priority 2014, dated 2018)
Read-outs that look alike come from different tables or passages of the source.

Columns and labels:
[1] = Compound cytotoxicity (CC50), XTT-based colorimetric assay; assay type: cell-based; details: human; uninfected MT2 cells, day 4, XTT assay
Method: Compound cytotoxicity and the corresponding CC50 values were determined using the same protocol as described in the antiviral assay except that uninfected cells were used. Cytotoxicity was assessed on day 4 in uninfected MT2 cells by using a XTT (2,3-bis[2-Methoxy-4-nitro-5-sulfophenyl]-2H-tetrazolium-5-carboxyanilide inner salt)-based colorimetric assay (Sigma-Aldrich, St Louis, Mo.).

[2] = test system: recombinant NL4-3 virus (nef section replaced with Renilla luciferase gene) in MT-2 cells; experiment: whole plant or invertebrate; assay type: cell-based, HIV; details: NL43, luciferase activity in MT-2 cells infected 4-5 days with recombinant NL4-3 virus
Source text: A recombinant NL4-3 proviral clone, in which a section of the nef gene was replaced with the Renilla luciferase gene, was used to make the reference virus used in these studies.
Supernatent was harvested after 2-3 days and the amount of virus present was titered in MT-2 cells using luciferase enzyme activity as a marker by measuring luciferase enzyme activity. Luciferase was quantitated using the EnduRen Live Cell Substrate from Promega (Madison, Wis.). Antiviral activities of compounds toward the recombinant virus were quantified by measuring luciferase activity in MT-2 cells infected for 4-5 days with the recombinant virus in the presence of serial dilutions of the compound.

For CCOc1cccc(-n2ccnc2[C@H](Cc2ccccc2)NC(=O)NS(=O)(=O)c2ccccc2C)c1 [Example 24, (S)-N-((1-(1-(3-ethoxyphenyl)-1H-imidazol-2-yl)-2-phenylethyl)carbamoyl)-2-methylbenzenesulfonamide], the CC50 at 4 day [1] was over 100 µM, the EC50 ([2]; read-out: Activity) was 100 to 1000 nM and the EC50 ([2]; read-out: EC50) was 600 nM.

CCCOc1ccc(-n2ccnc2[C@H](Cc2ccccc2)NC(=O)NS(=O)(=O)c2ccccc2C)cc1Cl [Example 25, (S)-N-((1-(1-(3-chloro-4-propoxyphenyl)-1H-imidazol-2-yl)-2-phenylethyl)carbamoyl)-2-methylbenzenesulfonamide] showed a CC50 at 4 day [1] of 50 µM and an EC50 ([2]; read-out: Activity) of under 100 nM.

CCOc1ccc(-n2ccnc2[C@H](Cc2ccccc2)NC(=O)NS(=O)(=O)c2ccccc2C)cc1Cl [Example 26, (S)-N-((1-(1-(3-chloro-4-ethoxyphenyl)-1H-imidazol-2-yl)-2-phenylethyl)carbamoyl)-2-methylbenzenesulfonamide] showed a CC50 at 4 day [1] of over 100 µM and an EC50 ([2]; read-out: Activity) of under 100 nM.

Cc1ccccc1S(=O)(=O)NC(=O)N[C@@H](Cc1ccccc1)c1nccn1-c1ccc2c(c1)OCO2 [Example 27, (S)-N-((1-(1-(benzo[d][1,3]dioxol-5-yl)-1H-imidazol-2-yl)-2-phenylethyl)carbamoyl)-2-methylbenzenesulfonamide] gave a CC50 at 4 day [1] of over 100 µM, an EC50 ([2]; read-out: Activity) of under 100 nM and an EC50 ([2]; read-out: EC50) of 70 nM.

Work on Cc1ccccc1-n1ccnc1[C@H](Cc1ccccc1)NC(=O)NS(=O)(=O)c1ccccc1C [Example 28, (S)-2-methyl-N-((2-phenyl-1-(1-(o-tolyl)-1H-imidazol-2-yl)ethyl)carbamoyl)benzenesulfonamide] yielded a CC50 at 4 day [1] of over 100 µM and an EC50 ([2]; read-out: Activity) of over 1000 nM.

Cc1ccccc1S(=O)(=O)NC(=O)N[C@@H](Cc1ccccc1)c1nccn1-c1ccc(OCc2ccccc2)cc1 [Example 30, (S)-N-((1-(1-(4-(benzyloxy)phenyl)-1H-imidazol-2-yl)-2-phenylethyl)carbamoyl)-2-methylbenzenesulfonamide] showed a CC50 at 4 day [1] of over 100 µM, an EC50 ([2]; read-out: Activity) of 100 to 1000 nM and an EC50 ([2]; read-out: EC50) of 280 nM.

Cc1ccccc1S(=O)(=O)NC(=O)N[C@@H](Cc1ccccc1)c1nccn1-c1ccccc1 [Example 31, (S)-2-methyl-N-((2-phenyl-1-(1-phenyl-1H-imidazol-2-yl)ethyl)carbamoyl)benzenesulfonamide] showed a CC50 at 4 day [1] of over 100 µM and an EC50 ([2]; read-out: Activity) of 100 to 1000 nM.

With Cc1ccc(-n2ccnc2[C@H](Cc2ccccc2)NC(=O)NS(=O)(=O)c2ccccc2C)cc1Cl [Example 32, (S)-N-((1-(1-(3-chloro-4-methylphenyl)-1H-imidazol-2-yl)-2-phenylethyl)carbamoyl)-2-methylbenzenesulfonamide] the CC50 at 4 day [1] was over 100 µM and the EC50 ([2]; read-out: Activity) was under 100 nM.

Cc1ccccc1S(=O)(=O)NC(=O)N[C@@H](Cc1ccccc1)c1nccn1-c1ccc([N+](=O)[O-])cc1 [Example 33, (S)-2-methyl-N-((1-(1-(4-nitrophenyl)-1H-imidazol-2-yl)-2-phenylethyl)carbamoyl)benzenesulfonamide] showed a CC50 at 4 day [1] of over 100 µM, an EC50 ([2]; read-out: Activity) of 100 to 1000 nM and an EC50 ([2]; read-out: EC50) of 190 nM.

In the case of CCOC(=O)Nc1ccc(-n2ccnc2[C@H](Cc2ccccc2)NC(=O)NS(=O)(=O)c2ccccc2C)cc1 [Example 34, (S)-ethyl (4-(2-(2-phenyl-1-(3-(o-tolylsulfonyl)ureido)ethyl)-1H-imidazol-1-yl)phenyl)carbamate], the CC50 at 4 day [1] is reported as over 100 µM and the EC50 ([2]; read-out: Activity) is reported as under 100 nM.

Compound CC(=O)Nc1ccc(-n2ccnc2[C@H](Cc2ccccc2)NC(=O)NS(=O)(=O)c2ccccc2C)cc1 [Example 35, (S)-N-(4-(2-(2-phenyl-1-(3-(o-tolylsulfonyl)ureido)ethyl)-1H-imidazol-1-yl)phenyl)acetamide] has a CC50 at 4 day [1] of over 33 µM and an EC50 ([2]; read-out: Activity) of 100 to 1000 nM.

For COC(=O)Nc1ccc(-n2ccnc2[C@H](Cc2ccccc2)NC(=O)NS(=O)(=O)c2ccccc2Cl)cc1 [Example 36, (S)-methyl (4-(2-(1-(3-((2-chlorophenyl)sulfonyl)ureido)-2-phenylethyl)-1H-imidazol-1-yl)phenyl)carbamate], the CC50 at 4 day [1] was over 100 µM, the EC50 ([2]; read-out: Activity) was under 100 nM and the EC50 ([2]; read-out: EC50) was 60 nM.

COC(=O)Nc1ccc(-n2ccnc2[C@H](Cc2ccccc2)NC(=O)NS(=O)(=O)c2ccccc2)cc1 [Example 37, (S)-methyl (4-(2-(2-phenyl-1-(3-(phenylsulfonyl)ureido)ethyl)-1H-imidazol-1-yl)phenyl)carbamate] showed a CC50 at 4 day [1] of over 33 µM and an EC50 ([2]; read-out: Activity) of 100 to 1000 nM.

Work on COC(=O)Nc1ccc(-n2ccnc2[C@H](Cc2ccccc2)NC(=O)NS(=O)(=O)c2ccc(C)cc2)cc1 [Example 38, (S)-methyl (4-(2-(2-phenyl-1-(3-tosylureido)ethyl)-1H-imidazol-1-yl)phenyl)carbamate] yielded a CC50 at 4 day [1] of over 100 µM and an EC50 ([2]; read-out: Activity) of 100 to 1000 nM.

COC(=O)Nc1ccc(-n2ccnc2[C@@H](Cc2ccccc2)NC(=O)NS(=O)(=O)c2ccccc2C)cc1 [Example 39] gave a CC50 at 4 day [1] of over 11 µM, an EC50 ([2]; read-out: Activity) of over 1000 nM and an EC50 ([2]; read-out: EC50) of 1420 nM.

With COc1ccc(Cn2ccnc2[C@H](Cc2ccccc2)NC(=O)NS(=O)(=O)c2ccccc2C)cc1 [Example 40, (S)-N-((1-(1-(4-methoxybenzyl)-1H-imidazol-2-yl)-2-phenylethyl)carbamoyl)-2-methylbenzenesulfonamide] the CC50 at 4 day [1] was over 33 µM and the EC50 ([2]; read-out: Activity) was 100 to 1000 nM.

With COc1ccc(Cn2ccnc2[C@H](Cc2ccccc2)NC(=O)NS(=O)(=O)c2ccccc2Cl)cc1 [Example 41, (S)-2-chloro-N-((1-(1-(4-methoxybenzyl)-1H-imidazol-2-yl)-2-phenylethyl)carbamoyl)benzenesulfonamide] the CC50 at 4 day [1] was over 33 µM and the EC50 ([2]; read-out: Activity) was 100 to 1000 nM.

Cc1ccccc1S(=O)(=O)NC(=O)N[C@@H](Cc1ccccc1)c1nccn1-c1ccc(N)cc1 [Example 42, (S)-N-((1-(1-(4-aminophenyl)-1H-imidazol-2-yl)-2-phenylethyl)carbamoyl)-2-methylbenzenesulfonamide] gave a CC50 at 4 day [1] of over 100 µM, an EC50 ([2]; read-out: Activity) of under 100 nM and an EC50 ([2]; read-out: EC50) of 40 nM.

COC(=O)Nc1ccc(-n2ccnc2[C@H](Cc2ccccc2)NC(=O)NS(=O)(=O)c2ccccc2OC)cc1 [Example 44, (S)-methyl (4-(2-(1-(3-((2-methoxyphenyl)sulfonyl)ureido)-2-phenylethyl)-1H-imidazol-1-yl)phenyl)carbamate] gave a CC50 at 4 day [1] of over 100 µM and an EC50 ([2]; read-out: Activity) of under 100 nM.

Compound COC(=O)Nc1ccc(-n2ccnc2[C@H](Cc2ccccc2)NC(=O)NS(=O)(=O)c2ccccc2OC(F)(F)F)cc1 [Example 45, (S)-methyl (4-(2-(2-phenyl-1-(3-((2-(trifluoromethoxy)phenyl)sulfonyl)ureido)ethyl)-1H-imidazol-1-yl)phenyl)carbamate] has a CC50 at 4 day [1] of over 100 µM, an EC50 ([2]; read-out: Activity) of under 100 nM and an EC50 ([2]; read-out: EC50) of 60 nM.

Compound COC(=O)Nc1ccc(-n2ccnc2[C@H](Cc2ccccc2)NC(=O)NS(=O)(=O)c2ccc(C)s2)cc1 [Example 46, (S)-methyl (4-(2-(1-(3-((5-methylthiophen-2-yl)sulfonyl)ureido)-2-phenylethyl)-1H-imidazol-1-yl)phenyl)carbamate] has a CC50 at 4 day [1] of over 100 µM and an EC50 ([2]; read-out: Activity) of 100 to 1000 nM.

With COC(=O)Nc1ccc(-n2ccnc2[C@H](Cc2ccccc2)NC(=O)NS(=O)(=O)Cc2ccccc2)cc1 [Example 47, (S)-methyl (4-(2-(1-(3-(benzylsulfonyl)ureido)-2-phenylethyl)-1H-imidazol-1-yl)phenyl)carbamate] the CC50 at 4 day [1] was over 33 µM and the EC50 ([2]; read-out: Activity) was 100 to 1000 nM.

For COC(=O)Nc1ccc(-n2ccnc2[C@H](Cc2ccccc2)NC(=O)NS(=O)(=O)Cc2cccc(Cl)c2)cc1 [Example 48, (S)-methyl (4-(2-(1-(3-((3-chlorobenzyl)sulfonyl)ureido)-2-phenylethyl)-1H-imidazol-1-yl)phenyl)carbamate], the CC50 at 4 day [1] was over 100 µM, the EC50 ([2]; read-out: Activity) was under 100 nM and the EC50 ([2]; read-out: EC50) was 70 nM.

With COC(=O)Nc1ccc(-n2ccnc2[C@H](Cc2ccccc2)NC(=O)NS(=O)(=O)c2c(F)cccc2F)cc1 [Example 50, (S)-methyl (4-(2-(1-(3-((2,6-difluorophenyl)sulfonyl)ureido)-2-phenylethyl)-1H-imidazol-1-yl)phenyl)carbamate] the CC50 at 4 day [1] was over 100 µM and the EC50 ([2]; read-out: Activity) was 100 to 1000 nM.

Work on COC(=O)Nc1ccc(-n2ccnc2[C@H](Cc2ccccc2)NC(=O)NS(=O)(=O)c2cccc(Cl)c2Cl)cc1 [Example 51, (S)-methyl (4-(2-(1-(3-((2,3-dichlorophenyl)sulfonyl)ureido)-2-phenylethyl)-1H-imidazol-1-yl)phenyl)carbamate] yielded a CC50 at 4 day [1] of over 100 µM, an EC50 ([2]; read-out: Activity) of 100 to 1000 nM and an EC50 ([2]; read-out: EC50) of 160 nM.

COC(=O)Nc1ccc(-n2ccnc2[C@H](Cc2ccccc2)NC(=O)NS(=O)(=O)C(C)C)cc1 [Example 52, (S)-methyl (4-(2-(1-(3-(isopropylsulfonyl)ureido)-2-phenylethyl)-1H-imidazol-1-yl)phenyl)carbamate] showed a CC50 at 4 day [1] of over 100 µM and an EC50 ([2]; read-out: Activity) of 100 to 1000 nM.

With COC(=O)Nc1ccc(-n2ccnc2[C@H](Cc2ccccc2)NC(=O)NS(=O)(=O)C2CC2)cc1 [Example 53, (S)-methyl (4-(2-(1-(3-(cyclopropylsulfonyl)ureido)-2-phenylethyl)-1H-imidazol-1-yl)phenyl)carbamate] the CC50 at 4 day [1] was over 100 µM and the EC50 ([2]; read-out: Activity) was 100 to 1000 nM.

COC(=O)Nc1ccc(-n2ccnc2[C@H](Cc2ccccc2)NC(=O)NS(=O)(=O)c2cccc(Cl)c2)cc1 [Example 54, (S)-methyl (4-(2-(1-(3-((3-chlorophenyl)sulfonyl)ureido)-2-phenylethyl)-1H-imidazol-1-yl)phenyl)carbamate] gave a CC50 at 4 day [1] of over 100 µM, an EC50 ([2]; read-out: Activity) of 100 to 1000 nM and an EC50 ([2]; read-out: EC50) of 150 nM.
